The target in assay [1] is Myeloid Cell Leukemia 1 (Mcl-1) (Homo sapiens (Human), UniProt Q07820). The assay can be described thus: Terbium labeled Mcl-1 HTRF binding assay (displacement of Cy5-labeled BIM BH3 peptide). To be noted: 25 pM Tb-Mcl-1, 8 nM Cy5 Bim peptide, Ki=IC50/(1+[L]/Kd), [L]=8 nM, Kd=10 nM, read-out: TB-MCL1 Ki. The procedure:
Terbium labeled Myeloid Cell Leukemia 1 (Mcl-1) homogeneous time-resolved fluorescence (HTRF) binding assay utilizing the BIM BH3 peptide (H2N-(C/Cy5Mal) WIAQELRRIGDEFN-OH) as the binding partner for Mcl-1.
This assay evaluated inhibition of the BH3 domain: Mcl-1 interaction by measuring the displacement of Cy5-labeled BIM BH3 peptide (H2N—(C/Cy5Mal) WIAQELRRIGDEFN-OH) in the HTRF assay format.
The following assay and stock buffers were prepared for use in the assay: (a) Stock buffer: 10 mM Tris-HCl, pH=7.5+150 mM NaCl, filtered, sterilized, and stored at 4° C.; and (b) 1× assay buffer, where the following ingredients were added fresh to stock buffer: 2 mM dithiothreitol (DTT), 0.0025% Tween-20, 0.1 mg/mL bovine serum albumin (BSA). The 1×Tb-Mcl-1+Cy5 Bim peptide solution was prepared by diluting the protein stock solution using the 1× assay buffer (b) to 25 pM Tb-Mcl-1 and 8 nM Cy5 Bim peptide.
Using the Acoustic ECHO, 100 nL of 100× test compound(s) were dispensed into individual wells of a white 384-well Perkin Elmer Proxiplate, for a final compound concentration of 1× and final DMSO concentration of 1%. Inhibitor control and neutral control (NC, 100 nL of 100% DMSO) were stamped into columns 23 and 24 of assay plate, respectively. Into each well of the plate was then dispensed 10 μL of the 1×Tb-Mcl-1+Cy5 Bim peptide solution. The plate was centrifuged with a cover plate at 1000 rpm for 1 minute, then incubated for 60 minutes at room temperature with plates covered. The TR-FRET signal was read on an BMG PHERAStar FSX MicroPlate Reader at room temperature using the HTRF optic module (HTRF: excitation: 337 nm, light source: laser, emission A: 665 nm, emission B: 620 nm, integration start: 60 μs, integration time: 400 pts).
The BMG PHERAStar FSX MicroPlate Reader was used to measure fluorescence intensity at two emission wavelengths—665 nm and 620 nm—and report relative fluorescence units (RFU) for both emissions, as well as a ratio of the emissions (665 nm/620 nm)*10,000. The RFU values were normalized to percent inhibition as follows:
% inhibition=(((NC−IC)−(compound−IC))/(NC−IC))*100
where IC (inhibitor control, low signal)=mean signal of 1×Tb-MC1-1+Cy5 Bim peptide+inhibitor control or 100% inhibition of Mcl-1; NC (neutral control, high signal)=mean signal 1×Tb-MC1-1+Cy5 Bim peptide with DMSO only or 0% inhibition
An 11-point dose response curve was generated to determine IC50 values (using GenData) based on the following equation:
Y=Bottom+(Top−Bottom)/(1+10^((log IC50−X)*HillSlope))
where Y=% inhibition in the presence of X inhibitor concentration; Top=100% inhibition derived from the IC (mean signal of Mcl-1+inhibitor control); Bottom=0% inhibition derived from the NC (mean signal of Mcl-1+DMSO); Hillslope=Hill coefficient; and IC50=concentration of compound with 50% inhibition in relation to top/neutral control (NC).
In this assay [L]=8 nM and Kd=10 nM
Representative compounds of the present invention were tested according to the procedure as described above, with results as listed in the Table below (n.d. means not determined).
(In TR-FRET formats the signal depends on donor and acceptor labels being close together.)

Assay [2] deals with MOLP-8 human multiple myeloma cell line. The assay can be described thus: MOLP8 Caspase-Glo 3/7 apoptosis induction assay. Format: cell-based. The following applies: MOLP-8 cells, 2 hours incubation at 37° C., averaged values over all runs on all batches. The source says:
MCL-1 is a regulator of apoptosis and is highly over-expressed in tumor cells that escape cell death. The assay evaluates the cellular potency of small-molecule compounds targeting regulators of the apoptosis pathway, primarily MCL-1, Bfl-1, Bcl-2, and other proteins of the Bcl-2 family. Protein-protein inhibitors disrupting the interaction of anti-apoptotic regulators with BH3-domain proteins initiate apoptosis.
The Caspase-Glo® 3/7 Assay is a luminescent assay that measures caspase-3 and -7 activities in purified enzyme preparations or cultures of adherent or suspension cells. The assay provides a proluminescent caspase-3/7 substrate, which contains the tetrapeptide sequence DEVD. This substrate is cleaved to release aminoluciferin, a substrate of luciferase used in the production of light. Addition of the single Caspase-Glo® 3/7 Reagent in an “add-mix-measure” format results in cell lysis, followed by caspase cleavage of the substrate and generation of a “glow-type” luminescent signal.
This assay uses the MOLP-8 human multiple myeloma cell line, which is sensitive to MCL-1 inhibition.
Materials: • Perkin Elmer Envision • Multidrop 384 and small volume dispensing cassettes • Centrifuge • Countess automated cell counter • Countess counting chamber slides • Assay plate: ProxiPlate-384 Plus, White 384-shallow well Microplate • Sealing tape: Topseal A plus • T175 culture flask
Cell cultures were maintained between 0.2 and 2.0×10^6 cells/mL. The cells were harvested by collection in 50 mL conical tubes. The cells were then pelleted at 500 g for 5 mins before removing supernatant and resuspension in fresh pre-warmed culture medium. The cells were counted and diluted as needed.
The assay reagent was prepared by transferring the buffer solution to the substrate vial and mixing. The solution may be stored for up to 1 week at 4° C. with negligible loss of signal.
Compounds were delivered in assay-ready plates (Proxiplate) and stored at −20° C.
Assays always include 1 reference compound plate containing reference compounds. The plates were spotted with 40 nL of compounds (0.5% DMSO final in cells; serial dilution; 30 μM highest conc. 1/3 dilution, 10 doses, duplicates). The compounds were used at room temperature and 4 μL of pre-warmed media was added to all wells except column 2 and 23. The negative control was prepared by adding 1% DMSO in media. The positive control was prepared by adding the appropriate positive control compound in final concentration of 60 μM in media. The plate was prepared by adding 4 μL negative control to column 23, 4 μL positive control to column 2 and 4 μL cell suspension to all wells in the plate. The plate with cells was then incubated at 37° C. for 2 hours. The assay signal reagent is the Caspase-Glo solution described above, and 8 μL was added to all wells. The plates were then sealed and measured after 30 minutes.
The activity of a test compound was calculated as percent change in apoptosis induction as follows: • LC=median of the Low Control values • =Central Reference in Screener • =DMSO • =0% • HC=Median of the High Control values • =Scale Reference in Screener • =30 μM of positive control • =100% apoptosis induction
% Effect (AC50)=100−((sample−LC)/(HC−LC))*100
% Control=(sample/HC)*100
% Control min=((sample−LC)/(HC−LC))*100

Each structure is given as a SMILES string. pKi: −log10 of the molar value.

Myeloid Cell Leukemia 1 (Mcl-1), sequence (Q07820 whole entry): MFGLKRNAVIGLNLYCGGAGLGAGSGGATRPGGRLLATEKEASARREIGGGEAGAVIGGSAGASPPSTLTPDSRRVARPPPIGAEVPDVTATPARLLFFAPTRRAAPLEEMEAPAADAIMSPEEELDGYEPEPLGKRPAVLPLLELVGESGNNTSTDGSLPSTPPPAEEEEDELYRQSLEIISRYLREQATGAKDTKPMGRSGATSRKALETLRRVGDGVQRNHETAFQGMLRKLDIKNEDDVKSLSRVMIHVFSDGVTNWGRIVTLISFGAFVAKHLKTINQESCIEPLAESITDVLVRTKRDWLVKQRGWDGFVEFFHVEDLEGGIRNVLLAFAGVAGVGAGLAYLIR

Regarding `Cc1c(C(=O)O)n2c3ccc(Cl)c(c13)-c1c(nn(C)c1C)C(C)OCc1cc(n(C)n1)CCc1cc(c3ccc(F)cc3c1)OCCC2` (single isomer, unassigned) [Compound 17], the pKi in assay [1] was 10.38. In assay [2], this molecule yielded an AC50 of 129 nM.

Turning to `COCCOCCC1OCc2cc(n(C)n2)CCc2cc(c3ccc(F)cc3c2)OCCCn2c(C(=O)O)c(C)c3c(c(Cl)ccc32)-c2c1nn(C)c2C` (single isomer, unassigned) [Compound 5], in assay [1], the pKi is 10.96. The AC50 in assay [2] (Homo sapiens, MOLP-8, 2 h) stood at 22.6 nM.

For the molecule `COCCOCCn1nc(C)c2c1C(C)OCc1cc(n(C)n1)CCc1cc(c3ccc(F)cc3c1)OCCCn1c(C(=O)O)c(C)c3c-2c(Cl)ccc31` (stereo not shown) [Compound 21], the pKi in assay [1] was 10.24. The molecule also registered an AC50 in assay [2] of 318 nM.

Turning to `COc1ccc(COC2CCc3cc(n(C)n3)CCc3cc(c4ccc(F)cc4c3)OCCCn3c(C(=O)O)c(C)c4c(c(Cl)ccc43)-c3c2nn(C)c3C)cc1` (single isomer, unassigned) [Compound 22], the negative logarithm of the Ki (pKi) in assay [1] is 9.45. For the same molecule, in assay [2], half-maximal activity (AC50) was put at 1000 nM.

With `Cc1nn2c3c1-c1c(Cl)ccc4c1c(C)c(C(=O)O)n4CCCOc1cc(cc4cc(F)ccc14)CCc1cc(nn1C)CCC3OCC2` (stereo not shown) [Compound 29], the pKi in assay [1] was 9.52. In addition, the AC50 in assay [2] was determined as 146 nM.

With `Cc1c(C(=O)O)n2c3ccc(Cl)c(c13)-c1c(nn(C)c1C)C(CC(C)O)OCc1cc(n(C)n1)CCc1cc(c3ccc(F)cc3c1)OCCC2` (single isomer, unassigned) [Compound 19], the pKi in assay [1] was 10.24. The molecule further displayed a concentration at half-maximal activity (AC50) in assay [2] (Homo sapiens, MOLP-8, 2 h) of 1210 nM.

On to `Cc1c(C(=O)O)n2c3ccc(Cl)c(c13)-c1c(nn(C)c1C)C(CCN1CCOCC1)OCc1cc(n(C)n1)CCc1cc(c3ccc(F)cc3c1)OCCC2` (single isomer, unassigned) [Compound 7], for which the pKi in assay [1] is 10.96. In assay [2] (Homo sapiens, MOLP-8, 2 h), this molecule yielded a concentration at half-maximal activity (AC50) of 149 nM.

`CNCCC1OCc2cc(n(C)n2)CCc2cc(c3ccc(F)cc3c2)OCCCn2c(C(=O)O)c(C)c3c(c(Cl)ccc32)-c2c1nn(C)c2C` (stereo not shown) [Compound 26]: in assay [1], the pKi is 8.44. The molecule also came in with an AC50 in assay [2] (Homo sapiens, MOLP-8, 2 h) above 30 nM.

As for `Cc1c(C(=O)O)n2c3ccc(Cl)c(c13)-c1c(nn(C)c1C)C(C)OCc1cc(n(C)n1)CCc1cc(c3ccc(F)cc3c1)OCCC2` (single isomer, unassigned) [Compound 18], the pKi in assay [1] is 11.00. Half-maximal activity in assay [2] (AC50) was put at 35.4 nM.

For `Cc1c(C(=O)O)n2c3ccc(Cl)c(c13)-c1c(nn(C)c1C)C(CCO)OCc1cc(n(C)n1)CCc1cc(c3ccc(F)cc3c1)OCCC2` (stereo not shown) [Compound 6], the pKi in assay [1] was 11.05. This molecule had an AC50 in assay [2] (Homo sapiens, MOLP-8, 2 h) of 52.7 nM.

As for `COCCCC1OCc2cc(n(C)n2)CCc2cc(c3ccc(F)cc3c2)OCCCn2c(C(=O)O)c(C)c3c(c(Cl)ccc32)-c2c1nn(C)c2C` (single isomer, unassigned) [Compound 24], in assay [1], the pKi is 8.07. The AC50 in assay [2] is above 25 nM.

As to `Cc1c(C(=O)O)n2c3ccc(Cl)c(c13)-c1c(nn(C)c1C)C(CC(C)O)OCc1cc(n(C)n1)CCc1cc(c3ccc(F)cc3c1)OCCC2` (single isomer, unassigned) [Compound 20], the pKi in assay [1] was 10.64. For the same molecule, the AC50 in assay [2] is 683 nM.

For `Cc1nn2c3c1-c1c(Cl)ccc4c1c(C)c(C(=O)O)n4CCCOc1cc(cc4cc(F)ccc14)CCc1cc(nn1C)CCC3OCC2` (stereo not shown) [Compound 27], in assay [2], the AC50 stood at 8.5 nM.

On to `COCC1OCc2cc(n(C)n2)CCc2cc(c3ccc(F)cc3c2)OCCCn2c(C(=O)O)c(C)c3c(c(Cl)ccc32)-c2c1nn(C)c2C` (single isomer, unassigned) [Compound 15], for which the negative logarithm of the Ki (pKi) in assay [1] is 10.32. The molecule further registered a concentration at half-maximal activity (AC50) in assay [2] of 66.1 nM.

In assay [2] (Homo sapiens, MOLP-8, 2 h), `COCCn1nc2cc1CCc1cc(c3ccc(F)cc3c1)OCCCn1c(C(=O)O)c(C)c3c(c(Cl)ccc31)-c1c(C)nn3c1C(CC2)OCC3` (stereo not shown) [Compound 31] gave a half-maximal activity concentration (AC50) of 48.6 nM.

On to `COCC1OCc2cc(n(C)n2)CCc2cc(c3ccc(F)cc3c2)OCCCn2c(C(=O)O)c(C)c3c(c(Cl)ccc32)-c2c1nn(C)c2C` (single isomer, unassigned) [Compound 16], for which the negative-log Ki (pKi) in assay [1] is 9.98. Besides, the AC50 in assay [2] stood at 230 nM.

Molecule `Cc1nn2c3c1-c1c(Cl)ccc4c1c(C)c(C(=O)O)n4CCCOc1cc(cc4cc(F)ccc14)CCc1cc(nn1C)CCC3OCC2` (stereo not shown) [Compound 28] registered an AC50 in assay [2] above 30 nM.

As to `Cc1c(C(=O)O)n2c3ccc(Cl)c(c13)-c1c(nn(C)c1C)C(CCCO)OCc1cc(n(C)n1)CCc1cc(c3ccc(F)cc3c1)OCCC2` (single isomer, unassigned) [Compound 11], the pKi in assay [1] is 11.00. In addition, the activity in assay [2] was half-maximal at 303 nM (AC50).

For `COCCn1nc2cc1CCc1cc(c3ccc(F)cc3c1)OCCCn1c(C(=O)O)c(C)c3c(c(Cl)ccc31)-c1c(C)nn3c1C(CC2)OCC3` (stereo not shown) [Compound 34], the negative logarithm of the Ki (pKi) in assay [1] was 9.39. The AC50 in assay [2] stood at 889 nM.

In the case of `CCOCCC1OCc2cc(n(C)n2)CCc2cc(c3ccc(F)cc3c2)OCCCn2c(C(=O)O)c(C)c3c(c(Cl)ccc32)-c2c1nn(C)c2C` (single isomer, unassigned) [Compound 9], in assay [1], the pKi was 11.05. For the same molecule, the AC50 in assay [2] (Homo sapiens, MOLP-8, 2 h) was 43.6 nM.

For the molecule `COCCOCC1OCc2cc(n(C)n2)CCc2cc(c3ccc(F)cc3c2)OCCCn2c(C(=O)O)c(C)c3c(c(Cl)ccc32)-c2c1nn(C)c2C` (single isomer, unassigned) [Compound 14], in assay [1], the pKi is 10.74. Besides, the activity in assay [2] (Homo sapiens, MOLP-8, 2 h) was half-maximal at 205 nM (AC50).

`Cc1nn2c3c1-c1c(Cl)ccc4c1c(C)c(C(=O)O)n4CCCOc1cc(cc4cc(F)ccc14)CCc1cc(nn1C)CCC3OCC2` (stereo not shown) [Compound 30] yielded an AC50 in assay [2] of 52.8 nM.

The pKi is the Ki on a negative log10 scale, so that one unit is a factor of ten. The term AC50 denotes the concentration at which the activity in the assay is half-maximal. High values mean weaker potency, low ones greater potency.
